Measurements: US5449783A, “Diphenylthiazole derivative” (Hisamitsu Pharmaceutical Co., Inc., priority 1993, dated 1995)

Key:
[1] = test system: carrageenin-induced paw edema; assay: Rat carrageenin-induced paw edema experiment A (oral); format: in vivo, Male Wistar rats; conditions: 10 mg/kg, 1 hour before carrageenin, 3 hours after induction
Description: Rat (carrageenin-induced paw edema experiment A)
Male Wistar rats weighing 140 to 160 g were divided into groups each comprising 8 animals.
0.1 ml of 1% carrageenin (PICNIN A, mfd. by Zushi Kagaku K.K.) was subcutaneously injected into the right hind paw of each rat and the edema thus induced was measured with the lapse of time by using a device for measuring foot edema. A test compound was suspended in a 0.5% CMC solution and orally administered to the rat 1 hour before the injection of carrageenin. The results expressed in the inhibition ratio (average) of each test group to the control group, to which no compound had been orally administered, 3 hours after the induction of the reaction are given in Table 2.

[2] = test system: carrageenin-induced paw edema; assay: Rat carrageenin-induced paw edema experiment B (intravenous); format: in vivo, Male Wistar rats; conditions: 1 mg/kg, immediately before carrageenin, 3 hours after induction
Description: Rat (carrageenin-induced paw edema experiment B)
0.1 ml of 1% carrageenin (PICNIN A, mfd. by Zushi Kagaku K.K.) was subcutaneously injected into the right hind paw of each rat and the edema thus induced was measured with the lapse of time by using a device for measuring foot edema. A test compound was suspended in a 60% N,N-dimethylformamide solution in physiological saline and intravenously injected to the rat immediately before the injection of carrageenin.

[3] = test system: carrageenin-induced paw edema; assay: Rat carrageenin-induced paw edema experiment C (injected together with carrageenin into the paw); format: in vivo, Male Wistar rats; conditions: 3 hours after induction
Description: Rat (carrageenin-induced paw edema experiment C)
Male Wistar rats weighing 160 to 170 g were divided into groups each comprising 7 animals.
0.1 ml of 1% carrageenin (PICNIN A, mfd. by Zushi Kagaku K.K.) containing a test compound was subcutaneously injected into the right hind paw of each rat and the edema thus induced was measured with the lapse of time by using a device for measuring foot edema.

[4] = test system: adjuvant arthritis (edema of the hind paw); assay: Rat adjuvant arthritis experiment; format: in vivo, male Wistar rat; conditions: oral, 10 mg/kg once a day for 7 days
Description: (Rat adjuvant arthritis experiment)
0.1 ml of 6 mg/ml Mycobacterium butyricum suspension in liquid paraffin was intracutaneously injected into the tail root of each male Wistar rat weighing about 200 g. 20 days thereafter, rats clearly suffering from arthritis in the hind paw were selected and divided into groups each comprising 7 animals.
A test compound was orally administered in a dose as specified below once a day for 7 days. Then the effect of the test compound on the adjuvant arthritis was examined by using an inhibition ratio on the edema of the hind paw as an indicator. The inhibition ratio was calculated according to the following equation.

[5] = test system: acetic acid-induced writhing; assay: Mouse acetic acid-induced writhing experiment; format: in vivo, Male ddy mice; conditions: oral, 20 mg/kg, 30 minutes before 0.6% acetic acid; writhing counted for 10 minutes
Description: (Mouse acetic acid-induced writhing experiment)
Male ddy mice weighing about 23 g were divided into groups each comprising 7 to 9 animals.
30 minutes after a test compound was orally administered, a 0.6% acetic acid solution in physiological saline was intraperitoneally administered in a dose of 0.1 ml per 10 g of the body weight. From 5 minutes after the intraperitoneal administration, the frequency of writhing was counted for 10 minutes to determine the inhibition ratio by comparing with the frequency of writhing in the control group.

prostaglandin synthetase = target: T1, prostaglandin synthetase (Ovis aries, UniProt P05979); assay: Effect of inhibiting biosynthesis of prostaglandin E2; format: biochemical, sheep; conditions: 10^-7; 10 minutes incubation
T1 construct: originating in sheep seminal vesicle; from tissue; host or cells: sheep seminal vesicle
T1 sequence (P05979 25-600): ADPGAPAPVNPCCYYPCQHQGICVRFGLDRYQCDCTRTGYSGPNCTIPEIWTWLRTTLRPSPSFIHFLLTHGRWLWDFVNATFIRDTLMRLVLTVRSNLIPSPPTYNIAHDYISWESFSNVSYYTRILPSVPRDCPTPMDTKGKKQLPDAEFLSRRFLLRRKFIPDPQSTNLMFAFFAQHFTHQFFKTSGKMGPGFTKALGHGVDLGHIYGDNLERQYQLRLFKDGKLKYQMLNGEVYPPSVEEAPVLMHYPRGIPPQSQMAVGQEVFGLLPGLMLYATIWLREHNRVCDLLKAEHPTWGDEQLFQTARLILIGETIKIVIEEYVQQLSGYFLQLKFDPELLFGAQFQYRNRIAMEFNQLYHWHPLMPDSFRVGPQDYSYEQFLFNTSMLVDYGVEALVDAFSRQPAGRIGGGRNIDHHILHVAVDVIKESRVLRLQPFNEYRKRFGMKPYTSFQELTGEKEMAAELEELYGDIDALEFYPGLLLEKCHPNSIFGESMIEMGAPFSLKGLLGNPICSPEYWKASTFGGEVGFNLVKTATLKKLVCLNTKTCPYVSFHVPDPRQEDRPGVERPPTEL
Description: (Effect of inhibiting biosynthesis of prostaglandin E2)
To a tris buffer solution containing 50 mM of glutathione and 50 mM of epinephrine were added prostaglandin synthetase (originating in sheep seminal vesicle) and a test drug dissolved in DMSO and incubated for 10 minutes. Then the reaction was ceased with 1 N hydrochloric acid under ice-cooling and the reaction mixture was extracted with ethyl ether. Then the extract was solidified by drying with nitrogen gas, dissolved in ethanol and developed on a TLC with a developer. Then the aimed part was scraped up and the radioactivity was measured with a liquid scintillation counter.

biosynthesis of 5-HETE = assay: Effect of inhibiting biosynthesis of 5-HETE in neutrophiles; format: cell-based, Hartley guinea pigs; conditions: 10^-6; A 23187, 14C-arachidonic acid
Description: (Effect of inhibiting biosynthesis of 5-HETE)
Hartley guinea pigs weighing 300 to 500 g were used.
0.2% oyster glycogen was intraperitoneally administered to each guinea pig and, after 16 hours, neutrophiles of the animal were harvested. […] After ceasing the reaction with 1N hydrochloric acid under ice-cooling, the reaction mixture was extracted with ethyl acetate. Then the extract was solidified by drying with nitrogen gas, dissolved in ethanol and developed on a TLC with a developer. Then the aimed part was scraped up and the radioactivity was measured with a liquid scintillation counter.

platelet aggregation = conditions: as stated by prior reference A; cited from earlier work
[6] = as stated by prior reference A; cited from earlier work
[7] = as stated by prior reference A; cited from earlier work; remark: listed apart in the source

SMILES	Inhibition ratio (prostaglandin synthetase) [%]	Inhibition ratio [1] [%]	Inhibition ratio [2] [%]	Inhibition ratio ([3]; 0.003 mg/kg) [%]	Inhibition ratio [4] [%]	Inhibition ratio [5] [%]	Inhibition ratio (biosynthesis of 5-HETE) [%]	platelet aggregation inhibiting effect (in words) (platelet aggregation)	hypocholesterolemic effect (in words) [6]	antiinflammatory and analgesic effects (in words) [7]	Inhibition ratio ([3]; 0.03 mg/kg) [%]
CC(=O)N(C)c1nc(-c2ccccc2)c(-c2ccccc2)s1 [2-(N-methyl-N-acetyl)amino-4,5-diphenylthiazole]	–	–	–	–	–	–	–	platelet aggregation inhibiting effect	hypocholesterolemic effect	weak or scarcely any	–
c1ccc(-c2nc(N3CCOCC3)sc2-c2ccccc2)cc1 [2-morpholino-4,5-diphenylthiazole]	–	–	–	–	–	–	–	platelet aggregation inhibiting effect	hypocholesterolemic effect	weak or scarcely any	–
CNc1nc(-c2ccccc2)c(-c2ccccc2)s1 [2-methylamino-4,5-diphenyl-thiazole]	–	–	–	–	–	–	–	platelet aggregation inhibiting effect	hypocholesterolemic effect	weak or scarcely any	–
CC(Cc1ccc(O)c(O)c1)C(C)Cc1ccc(O)c(O)c1 (centres unmarked) [NDGA, nordihydroguairetic acid, reference compound]	–	–	–	–	–	–	43.0	–	–	–	–
COc1ccc2c(c1)c(CC(=O)O)c(C)n2C(=O)c1ccc(Cl)cc1 [indomethacin, reference compound]	–	–	47.4	–	–	–	–	–	–	–	44.7

Further lines, with some results ahead:

Inhibition ratio (prostaglandin synthetase) [%]	SMILES	Inhibition ratio [1] [%]	Inhibition ratio [2] [%]	Inhibition ratio ([3]; 0.003 mg/kg) [%]	Inhibition ratio [4] [%]	Inhibition ratio [5] [%]	Inhibition ratio (biosynthesis of 5-HETE) [%]	platelet aggregation inhibiting effect (in words) (platelet aggregation)	hypocholesterolemic effect (in words) [6]	antiinflammatory and analgesic effects (in words) [7]	Inhibition ratio ([3]; 0.03 mg/kg) [%]
48.1	O=[N+]([O-])c1ccc(-c2sc(NS(=O)(=O)C(F)(F)F)nc2-c2ccccc2)cc1 [Ex. 17]	23.9	36.6	37.1	35.3	36.3	47.3	–	–	–	–
52.2	COc1ccc(-c2sc(NS(=O)(=O)C(F)(F)F)nc2-c2ccccc2)cc1 [Ex. 32]	52.3	48.1	50.4	34.6	28.6	44.8	–	–	–	–
43.9	O=S(=O)(Nc1nc(-c2ccccc2)c(-c2ccc(F)cc2)s1)C(F)(F)F [Ex. 37]	56.2	46.4	49.8	44.9	18.1	48.7	–	–	–	–
45.5	O=S(=O)(Nc1nc(-c2ccccc2)c(-c2ccccc2)s1)C(F)(F)F [Ex. 1, 2-trifluoromethanesulfonylamino-4,5-diphenylthlazole]	44.9	41.3	44.2	36.6	24.6	40.5	–	–	–	–
57.2	COc1ccc(-c2nc(NS(=O)(=O)C(F)(F)F)sc2-c2ccccc2)cc1 [Ex. 10]	46.8	52.8	50.7	45.6	46.1	45.1	–	–	–	–
